According to patent publication US20260265245A1, “AROMATIC HETEROCYCLIC DERIVATIVE HAVING GLP-1 RECEPTOR AGONIST ACTIVITY” (Shionogi & Co., Ltd., priority 2021, published 2026):

Molecular target: T1, Human GLP-1 receptor (Homo sapiens, UniProt P43220)
T1 construct: expressed in transfected cells
Experiment: Measurement of GLP-1 receptor agonist activity (cAMP assay)
Type: cell-based
Settings: hGLP-1R/CHO-K1 cells; for Emax: cAMP with 2 nM human GLP-1 (7-36) = 100%, DMSO only = 0%; for EC50: increase in cAMP concentration as index, 37° C., 1 hour
Method: Test Example 1: Measurement of GLP-1 Receptor Agonist Activity
Human GLP-1 receptor stably expressing cells (hGLP-1R/CHO-K1 cells) are cultured in an a-MEM medium (Sigma) containing 10% FBS (Hyclone), 2% GlutaMAX (Gibco), 1% G418 (Nacalai Tesque), and 1% Penicillin-Streptomycin Mixed Solution (Sigma) at 37° C. under 5% CO2 conditions, and recovered by treating a 10 fold diluted 5.0 g/l-trypsin/5.3 mmol/l-EDTA solution (Nacalai Tesque) and cryopreserved.
A DMSO solution containing the compound of the present invention or human GLP-1 (7-36) (Phoenix Pharmaceuticals) is dispensed into a 384-well microplate (Greiner) at 62.5 nL/well, and in addition, 400 μM Forskolin (Nacalai Tesque) is dispensed therein at 7.5 nL/well. Subsequently, the frozen GLP-1 R/CHO-K1 cells are thawed in a thermostatic bath at 37° C., suspended in HBSS buffer containing 0.1% BSA (Sigma), 20 mM HEPES (GIBCO), 0.1 mM IBMX (Sigma), and 0.2 mM RO20-1724 (Calbiochem) at 2×10^4 cells/mL, and the cell suspension is added at 6 μL/well. The solution was incubated at 37° C. for 1 hour and intracellular cAMP concentration is measured using CAMP Gs dynamic kit (Cisbio) according to the protocol attached to the product. Specifically, a cAMP-d2/Anti-cAMP-Cryptate (1/1) mixed solution is added in a total amount of 6 μL/well, the mixture is incubated at room temperature for 1 hour, and time-resolved fluorescence is measured using PHERAstar (BMG Labtech).
Assuming that the CAMP concentration when human GLP-1 (7-36) is dispensed to a final concentration of 2 nM is 100% and the CAMP concentration when only DMSO is dispensed is 0%, the 50% effective concentration (EC50) and the maximum effect (Emax) of the compound of the present invention are calculated using an increase in the CAMP concentration as an index, using TIBCO Spotfire (TIBCO Software). The dilution concentration or the dilution solvent are changed as necessary.
The compounds of the present invention were tested essentially as described above.

T1 sequence (P43220 24-463): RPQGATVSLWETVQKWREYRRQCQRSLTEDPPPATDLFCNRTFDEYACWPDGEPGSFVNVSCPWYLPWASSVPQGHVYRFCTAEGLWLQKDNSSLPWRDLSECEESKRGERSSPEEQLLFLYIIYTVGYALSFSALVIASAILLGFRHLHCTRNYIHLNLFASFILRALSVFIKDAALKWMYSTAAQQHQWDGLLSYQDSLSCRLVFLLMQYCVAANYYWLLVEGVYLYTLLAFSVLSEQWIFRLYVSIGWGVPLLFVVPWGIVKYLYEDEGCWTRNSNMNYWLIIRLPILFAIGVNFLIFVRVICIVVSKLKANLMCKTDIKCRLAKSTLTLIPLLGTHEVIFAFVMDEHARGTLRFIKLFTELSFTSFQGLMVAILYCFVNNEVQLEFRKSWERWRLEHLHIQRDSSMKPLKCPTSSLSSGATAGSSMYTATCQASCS

Row | SMILES | Emax [%] | EC50 [nM]
1 | Cn1c(/C=C/C(=O)O)cnc1CN1CCC(c2cccc(OCc3ccc(Cl)cc3F)n2)CC1 [I - 001] | 63.7 | 181
2 | Cn1c(CN2CCC(c3cccc(OCc4ccc(Cl)cc4F)n3)CC2)nc(Br)c1/C=C/C(=O)O [I - 002] | 85 | 31.5
3 | O=C(O)/C=C/c1c(Br)nc(CN2CCC(c3cccc(OCc4ccc(Cl)cc4F)n3)CC2)n1C[C@@H]1CCO1 [I - 003] | 107 | 0.401
4 | Oc1nnc(-c2c(Br)nc(CN3CCC(c4cccc(OCc5ccc(Cl)cc5F)n4)CC3)n2C[C@@H]2CCO2)o1 [I - 004] | 97 | 7
5 | Oc1nnc(-c2c(Cl)nc(CN3CCC(c4cccc(OCc5ccc(Cl)cc5F)n4)CC3)n2C[C@@H]2CCO2)o1 [I - 005] | 98.7 | 16.2
6 | O=C(O)/C=C/c1c(Cl)nc(CN2CCC(c3cccc(OCc4ccc(Cl)cc4F)n3)CC2)n1C[C@@H]1CCO1 [I - 006] | 118 | 1.41
7 | C[C@]1(c2ccc(Cl)cc2F)Oc2cccc(C3CCN(Cc4nc(Cl)c(/C=C/C(=O)O)n4C[C@@H]4CCO4)CC3)c2O1 [I - 007] | 92 | 0.138
8 | C[C@H]1c2cc(OCc3ccc(Cl)cc3F)c(C(F)(F)F)cc2CCN1Cc1nc(Br)c(/C=C/C(=O)O)n1C[C@@H]1CCO1 [I - 008] | 105 | 0.368
9 | C[C@H]1c2nc(OCc3ccc(Cl)cc3F)c(C(F)(F)F)cc2CCN1Cc1ncc(/C=C/C(=O)O)n1C[C@@H]1CCO1 [I - 009] | 101 | 0.686
10 | C[C@H]1c2nc(OCc3ccc(Cl)cc3F)c(Cl)cc2CCN1Cc1nc(Br)c(/C=C/C(=O)O)n1C[C@@H]1CCO1 [I - 010] | 96 | 0.151
11 | C[C@H]1c2nc(OCc3ccc(Cl)cc3F)c(C(F)(F)F)cc2CCN1Cc1nc(Cl)c(/C=C/C(=O)O)n1C[C@@H]1CCO1 [I - 011] | 99.7 | 0.0965
12 | C[C@H]1c2nc(OCc3ccc(Cl)cc3F)c(C(F)F)cc2CCN1Cc1nc(Cl)c(/C=C/C(=O)O)n1C[C@@H]1CCO1 [I - 012] | 117 | 0.283
